# In PubChem BioAssay (NCI):
#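 Results reflect a 48-hour exposure of cells in 96-well plates to compound at five concentrations. TGI is the concentration that stops growth completely.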
# Columns and labels:
# Test in all cases: NCI tumour cell line growth inhibition, 48 h
# [1] = tested on: P388 leukemia
# [2] = tested on: XF 498 CNS
# [3] = tested on: SF-539 CNS
# [4] = tested on: OVCAR-4 ovarian
# [5] = tested on: SK-MEL-5 melanoma
# [6] = tested on: OVCAR-5 ovarian
# [7] = tested on: OVCAR-8 ovarian
# [8] = tested on: NCI-H226 lung
# [9] = tested on: HL-60(TB) leukemia
# [10] = tested on: UACC-62 melanoma
# [11] = tested on: MALME-3M melanoma
# [12] = tested on: RXF 393 renal
# [13] = tested on: KM20L2 colon
# [14] = tested on: HT29 colon
# [15] = tested on: K-562 leukemia
# [16] = tested on: MOLT-4 leukemia
# [17] = tested on: OVCAR-3 ovarian
# [18] = tested on: U251 CNS
# [19] = tested on: SF-268 CNS
# [20] = tested on: SNB-75 CNS
# [21] = tested on: COLO 205 colon
# [22] = tested on: SNB-78 CNS
# [23] = tested on: HCT-116 colon
# [24] = tested on: DLD-1 colon
# [25] = tested on: SK-MEL-2 melanoma
# [26] = tested on: A549 NSCLC
# [27] = tested on: HOP-62 NSCLC
# [28] = tested on: MCF7 breast
# [29] = tested on: NCI/ADR-RES ovarian
# [30] = tested on: KM12 colon
# [31] = tested on: IGROV1 ovarian
# [32] = tested on: NCI-H23 lung
# [33] = tested on: A498 renal
# [34] = tested on: HCT-15 colon
# [35] = tested on: UO-31 renal
# [36] = tested on: NCI-H460 lung
# [37] = tested on: HCC-2998 colon
# [38] = tested on: P388/ADR leukemia
# [39] = tested on: SK-OV-3 ovarian
# [40] = tested on: LOX IMVI melanoma
# [41] = tested on: SK-MEL-28 melanoma
# [42] = tested on: CCRF-CEM leukemia
# [43] = tested on: RPMI-8226 leukemia
# [44] = tested on: SN12C renal
# [45] = tested on: HOP-18 NSCLC
# [46] = tested on: DMS 273 small cell lung
# [47] = tested on: SW-620 colon
# [48] = tested on: NCI-H522 lung
# [49] = tested on: CAKI-1 renal
# [50] = tested on: HOP-92 NSCLC
# [51] = tested on: M19-MEL melanoma
# [52] = tested on: SF-295 CNS
# [53] = tested on: SN12K1 renal
# [54] = tested on: EKVX NSCLC
# [55] = tested on: UACC-257 melanoma
# [56] = tested on: SNB-19 CNS
# [57] = tested on: DMS 114 small cell lung
compound,measurement,setting,value
O=C(CC1=NCCN1)c1ccccc1,TGI,[1],> 750 µM
same,TGI,[2],> 750 µM
same,TGI,[3],> 750 µM
same,TGI,[4],> 750 µM
same,TGI,[5],> 750 µM
same,TGI,[6],> 750 µM
same,TGI,[7],> 750 µM
same,TGI,[8],742 µM
same,TGI,[9],> 750 µM
same,TGI,[10],> 750 µM
same,TGI,[11],> 750 µM
same,TGI,[12],> 750 µM
same,TGI,[13],> 750 µM
same,TGI,[14],> 750 µM
same,TGI,[15],> 750 µM
same,TGI,[16],> 750 µM
same,TGI,[17],> 750 µM
same,TGI,[18],> 750 µM
same,TGI,[19],> 750 µM
same,TGI,[20],> 750 µM
same,TGI,[21],> 750 µM
same,TGI,[22],> 750 µM
same,TGI,[23],> 750 µM
same,TGI,[24],> 750 µM
same,TGI,[25],> 750 µM
same,TGI,[26],> 285 µM
same,TGI,[27],> 750 µM
same,TGI,[28],> 750 µM
same,TGI,[29],> 750 µM
same,TGI,[30],> 750 µM
same,TGI,[31],> 750 µM
same,TGI,[32],> 750 µM
same,TGI,[33],> 75 µM
same,TGI,[34],> 750 µM
same,TGI,[35],> 750 µM
same,TGI,[36],> 511 µM
same,TGI,[37],> 750 µM
same,TGI,[38],> 750 µM
same,TGI,[39],> 750 µM
same,TGI,[40],> 750 µM
same,TGI,[41],> 750 µM
same,TGI,[42],> 511 µM
same,TGI,[43],> 750 µM
same,TGI,[44],> 750 µM
same,TGI,[45],> 750 µM
same,TGI,[46],> 750 µM
same,TGI,[47],> 750 µM
same,TGI,[48],> 750 µM
same,TGI,[49],> 750 µM
same,TGI,[50],> 750 µM
same,TGI,[51],> 750 µM
same,TGI,[52],> 750 µM
same,TGI,[53],> 750 µM
same,TGI,[54],> 750 µM
same,TGI,[55],> 750 µM
same,TGI,[56],> 750 µM
same,TGI,[57],> 750 µM
